Our source for the IC50 values is patent US12371428B2 (Exelixis, Inc., priority 2019, dated 2025).

The target of test [1] is Met (phospho-Met, HGF-stimulated PC-3 prostate cancer cells) (Homo sapiens (Human), UniProt P08581). In words: Met autophosphorylation ELISA in PC-3 cells (Example F). The format is cell-based. Particulars: cellular activity; Met autophosphorylation ELISA in PC-3 cells; read-out: c-Met IC50. In short, it runs like this:
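Sandwich ELISA for phospho-Met (panTyr) in PC-3 lysates. Cells starved 3 h serum-free, compound 1 h (8-pt curve, 0.3% DMSO), HGF 100 ng/mL 10 min. 100% = HGF + DMSO; 0% = HGF + reference inhibitor. IC50 by 4-parameter fit.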
(In general: An ELISA detects its analyte on a solid surface through an enzyme-linked reagent.)

The target in test [2] is Mer (phospho-Mer, MERTK-transfected 293A cells) (Homo sapiens (Human), UniProt Q12866). As to the kind of experiment: Mer autophosphorylation ELISA in transient transfected 293A cells (Example H). Particulars: cellular activity; Mer autophosphorylation ELISA in transient transfected 293A cells. In kind it is cell-based. The gist of the method:
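Inhibition of cellular Mer autophosphorylation is determined in 293A cells transiently expressing human MERTK after 1 h compound exposure (8 concentrations, serum-free, 0.3% DMSO). Phospho-Mer in clarified lysates is measured by ELISA, with DMSO and reference-inhibitor wells defining the 100% and 0% activity limits.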

In test [3] the target is Human KDR (residues 790-1356) (Homo sapiens (Human), UniProt P35968). As to the kind of experiment: Human KDR kinase assay, HTRF KinEase (Example B-2). In kind it is biochemical. Particulars: protocol of Example B-2 (other compounds). The gist of the method: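 Human KDR residues 790-1356 (0.1 ng/well) in buffer with 5 mM MgCl2, 1 mM MnCl2, 1 mM DTT, biotinylated peptide substrate, ATP at Km (4.0 μM), 3% DMSO, 10 compound concentrations; 40 min, room temperature. EDTA stop, streptavidin-XL665/Eu-TK antibody HTRF read 665/620 nm; 4-parameter IC50.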
Chain of Human KDR (residues 790-1356) (P35968 790-1356): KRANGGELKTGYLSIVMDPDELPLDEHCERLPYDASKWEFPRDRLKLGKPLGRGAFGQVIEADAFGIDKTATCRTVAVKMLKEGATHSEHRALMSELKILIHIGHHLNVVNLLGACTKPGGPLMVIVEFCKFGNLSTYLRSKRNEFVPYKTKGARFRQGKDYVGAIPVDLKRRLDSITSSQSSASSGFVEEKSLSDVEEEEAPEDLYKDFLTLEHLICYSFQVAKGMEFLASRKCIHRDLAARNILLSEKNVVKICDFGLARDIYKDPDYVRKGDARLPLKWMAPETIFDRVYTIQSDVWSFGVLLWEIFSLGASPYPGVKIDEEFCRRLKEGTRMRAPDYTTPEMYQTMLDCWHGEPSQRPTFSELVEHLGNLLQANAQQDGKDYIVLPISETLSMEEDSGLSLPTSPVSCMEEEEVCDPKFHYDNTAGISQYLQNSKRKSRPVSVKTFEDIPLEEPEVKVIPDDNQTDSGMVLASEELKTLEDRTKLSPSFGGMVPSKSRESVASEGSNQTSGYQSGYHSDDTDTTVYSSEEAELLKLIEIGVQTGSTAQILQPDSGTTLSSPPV

For test [4], the target named is Human MER (residues 528-999) (Homo sapiens (Human), UniProt Q12866). In words: Human Mer kinase assay, HTRF KinEase (Example C-2). Particulars: protocol of Example C-2 (other compounds). In kind it is biochemical. The gist of the method: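 IC50 values from 10 concentrations via 4-parameter logistic fit of […], with DMSO as 100% and 1 μM reference compound as 0% activity. Reaction: MER kinase domain 528-999, 1 ng/well, 40 μM ATP (Km), biotin peptide, 5 mM MgCl2, 1 mM DTT, 3% DMSO, room temperature 60 min; HTRF streptavidin-XL665/Eu-antibody detection.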
Chain of Human MER (residues 528-999) (Q12866 528-999): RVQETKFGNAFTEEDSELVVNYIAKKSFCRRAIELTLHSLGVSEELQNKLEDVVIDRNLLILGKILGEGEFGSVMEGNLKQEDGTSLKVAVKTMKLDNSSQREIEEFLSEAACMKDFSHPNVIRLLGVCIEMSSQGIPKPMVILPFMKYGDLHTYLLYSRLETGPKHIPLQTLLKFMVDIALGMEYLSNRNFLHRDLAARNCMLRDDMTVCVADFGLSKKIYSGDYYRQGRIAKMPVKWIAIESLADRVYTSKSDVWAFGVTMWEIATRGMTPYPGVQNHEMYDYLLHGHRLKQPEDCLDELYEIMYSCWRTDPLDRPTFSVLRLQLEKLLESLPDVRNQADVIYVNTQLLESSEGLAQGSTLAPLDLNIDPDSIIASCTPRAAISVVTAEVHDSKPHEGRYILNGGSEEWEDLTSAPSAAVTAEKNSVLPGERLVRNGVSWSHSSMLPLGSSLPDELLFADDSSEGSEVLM
Background: Time-resolved FRET reads energy transfer from a long-lived donor to a nearby acceptor.

pIC50: −log10 of the molar value.

Chain of Met (phospho-Met, HGF-stimulated PC-3 prostate cancer cells) (P08581 25-1390): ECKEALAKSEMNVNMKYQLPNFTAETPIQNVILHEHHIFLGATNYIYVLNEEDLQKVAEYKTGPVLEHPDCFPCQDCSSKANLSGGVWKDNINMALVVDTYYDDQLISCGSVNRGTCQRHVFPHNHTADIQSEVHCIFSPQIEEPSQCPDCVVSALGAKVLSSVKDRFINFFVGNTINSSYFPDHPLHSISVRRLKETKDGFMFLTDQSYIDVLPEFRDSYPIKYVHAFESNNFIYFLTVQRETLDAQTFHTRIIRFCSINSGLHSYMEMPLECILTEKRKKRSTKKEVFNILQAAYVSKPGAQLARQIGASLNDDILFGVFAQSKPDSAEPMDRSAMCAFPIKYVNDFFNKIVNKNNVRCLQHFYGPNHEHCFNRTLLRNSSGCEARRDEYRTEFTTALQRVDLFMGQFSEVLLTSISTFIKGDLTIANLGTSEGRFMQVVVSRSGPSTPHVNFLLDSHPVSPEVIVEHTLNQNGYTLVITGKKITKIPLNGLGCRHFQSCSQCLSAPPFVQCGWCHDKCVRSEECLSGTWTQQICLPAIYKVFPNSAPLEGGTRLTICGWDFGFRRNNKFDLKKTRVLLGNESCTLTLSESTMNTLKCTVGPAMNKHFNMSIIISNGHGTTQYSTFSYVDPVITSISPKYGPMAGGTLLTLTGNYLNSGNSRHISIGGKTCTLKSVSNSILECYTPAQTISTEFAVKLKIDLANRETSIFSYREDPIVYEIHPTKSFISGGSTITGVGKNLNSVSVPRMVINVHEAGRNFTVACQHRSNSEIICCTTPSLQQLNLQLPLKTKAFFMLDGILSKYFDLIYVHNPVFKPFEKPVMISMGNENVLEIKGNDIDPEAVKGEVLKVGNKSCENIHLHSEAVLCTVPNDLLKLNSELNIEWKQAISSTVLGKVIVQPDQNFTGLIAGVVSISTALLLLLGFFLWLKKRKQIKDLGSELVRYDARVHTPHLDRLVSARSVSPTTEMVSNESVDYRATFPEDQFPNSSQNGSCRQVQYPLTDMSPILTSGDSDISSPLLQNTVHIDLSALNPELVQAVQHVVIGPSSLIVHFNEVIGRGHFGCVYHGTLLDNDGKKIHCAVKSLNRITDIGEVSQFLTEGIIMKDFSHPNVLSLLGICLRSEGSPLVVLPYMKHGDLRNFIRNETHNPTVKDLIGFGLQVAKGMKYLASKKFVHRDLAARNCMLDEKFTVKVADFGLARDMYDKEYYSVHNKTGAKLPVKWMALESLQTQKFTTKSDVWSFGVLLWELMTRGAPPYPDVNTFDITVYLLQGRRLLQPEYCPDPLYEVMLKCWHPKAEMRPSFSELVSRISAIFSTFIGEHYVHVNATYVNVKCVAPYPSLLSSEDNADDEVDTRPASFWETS
Chain of Mer (phospho-Mer, MERTK-transfected 293A cells) (Q12866 21-999): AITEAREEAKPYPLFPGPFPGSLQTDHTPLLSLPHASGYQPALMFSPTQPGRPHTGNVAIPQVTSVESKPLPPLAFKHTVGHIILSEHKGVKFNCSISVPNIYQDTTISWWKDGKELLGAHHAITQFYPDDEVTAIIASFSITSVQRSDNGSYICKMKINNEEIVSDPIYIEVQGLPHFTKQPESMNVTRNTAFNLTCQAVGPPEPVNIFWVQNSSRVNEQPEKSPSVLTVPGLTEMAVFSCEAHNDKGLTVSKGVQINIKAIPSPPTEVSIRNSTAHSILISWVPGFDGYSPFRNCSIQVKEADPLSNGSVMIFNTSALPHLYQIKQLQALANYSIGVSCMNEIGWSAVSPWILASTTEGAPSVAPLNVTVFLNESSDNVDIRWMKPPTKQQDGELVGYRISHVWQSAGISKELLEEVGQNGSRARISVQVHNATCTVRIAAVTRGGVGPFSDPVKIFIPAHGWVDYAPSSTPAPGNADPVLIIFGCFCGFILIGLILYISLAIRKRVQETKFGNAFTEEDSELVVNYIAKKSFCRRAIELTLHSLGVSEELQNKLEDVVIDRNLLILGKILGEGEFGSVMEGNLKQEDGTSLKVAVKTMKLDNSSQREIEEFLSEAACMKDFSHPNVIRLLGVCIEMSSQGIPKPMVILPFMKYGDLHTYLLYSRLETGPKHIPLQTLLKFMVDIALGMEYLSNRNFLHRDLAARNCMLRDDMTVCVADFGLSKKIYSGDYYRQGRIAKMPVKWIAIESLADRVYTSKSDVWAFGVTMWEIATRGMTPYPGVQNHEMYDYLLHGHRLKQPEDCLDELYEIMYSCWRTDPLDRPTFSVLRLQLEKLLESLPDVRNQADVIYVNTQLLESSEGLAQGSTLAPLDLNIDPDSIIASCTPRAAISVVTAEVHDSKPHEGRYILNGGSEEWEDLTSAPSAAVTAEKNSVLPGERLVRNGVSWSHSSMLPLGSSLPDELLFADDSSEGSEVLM

For `COc1cc2nccc(Oc3ccc(NC(=O)c4cn(CC(F)(F)F)c(C)c(-c5ccc(F)cc5)c4=O)cc3F)c2nc1OC` [Compound 74, N-[4-[(6,7-Dimethoxy-1,5-naphthyridin-4-yl)oxy]-3-fluorophenyl]-5-(4-fluorophenyl)-6-methyl-4-oxo-1-(2,2,2-trifluoroethyl)pyridine-3-carboxamide], the pIC50 in test [1], in test [2], in test [3] and in test [4] was greater than 7.00 throughout.

For the compound `COc1cc2nccc(Oc3ccc(NC(=O)c4cn(C)c(C)c(-c5ccc(F)cc5C)c4=O)cc3F)c2nc1OC` [Compound 75, N-[4-[(6,7-Dimethoxy-1,5-naphthyridin-4-yl)oxy]-3-fluorophenyl]-5-(4-fluoro-2-methylphenyl)-1,6-dimethyl-4-oxopyridine-3-carboxamide], the pIC50 in test [1] is greater than 7.00; in test [2] it was greater than 7.00; in test [3], 6.52 to 7.00; in test [4] it was greater than 7.00.

For the compound `CNc1c(-c2ccc(F)cc2)c(=O)c(C(=O)Nc2ccc(Oc3ccnc4cc(OC)c(OC)nc34)c(F)c2)cn1C` [Compound 76, N-[4-[(6,7-Dimethoxy-1,5-naphthyridin-4-yl)oxy]-3-fluorophenyl]-5-(4-fluorophenyl)-1-methyl-6-(methylamino)-4-oxopyridine-3-carboxamide], the negative logarithm of the IC50 (pIC50) in test [1], in test [2], in test [3] and in test [4] was greater than 7.00 in each case.

`COc1cc2nccc(Oc3ccc(NC(=O)c4cn(C)c(C#N)c(-c5ccc(F)cc5)c4=O)cc3F)c2nc1OC` [Compound 77, 6-Cyano-N-[4-[(6,7-dimethoxy-1,5-naphthyridin-4-yl)oxy]-3-fluorophenyl]-5-(4-fluorophenyl)-1-methyl-4-oxopyridine-3-carboxamide]: the pIC50 in test [1] was greater than 7.00; in test [2], greater than 7.00; in test [3], less than 6.52; in test [4] it was greater than 7.00.

For `COc1cc2nccc(Oc3ccc(NC(=O)c4cn(C)c(OC)c(-c5ccc(F)cc5)c4=O)cc3F)c2nc1OC` [Compound 78, N-[4-[(6,7-Dimethoxy-1,5-naphthyridin-4-yl)oxy]-3-fluorophenyl]-5-(4-fluorophenyl)-6-methoxy-1-methyl-4-oxopyridine-3-carboxamide], the pIC50 in test [1], in test [2], in test [3] and in test [4] was greater than 7.00 in each case.

Consider `COc1cnc2c(Oc3ccc(NC(=O)c4c(C)ncc(-c5ccc(F)cc5)c4O)cc3F)ccnc2c1` [Compound 80, N-[3-Fluoro-4-[(7-methoxy-1,5-naphthyridin-4-yl)oxy]phenyl]-5-(4-fluorophenyl)-4-hydroxy-2-methylpyridine-3-carboxamide], for which the pIC50 in test [1], in test [2], in test [3] and in test [4] was greater than 7.00 in each case.

As for `COc1cc2nccc(Oc3ccc(NC(=O)c4c(C)n(C)cc(-c5ccc(F)cc5)c4=O)cc3F)c2nc1OC` [Compound 81, N-[4-[(6,7-Dimethoxy-1,5-naphthyridin-4-yl)oxy]-3-fluorophenyl]-5-(4-fluorophenyl)-1,2-dimethyl-4-oxopyridine-3-carboxamide], the negative-log IC50 (pIC50) in test [1], in test [2], in test [3] and in test [4] was greater than 7.00 in each case.

Consider `CCn1cc(-c2ccc(F)cc2)c(=O)c(C(=O)Nc2ccc(Oc3ccnc4cc(OC)c(OC)nc34)c(F)c2)c1C` [Compound 82, N-[4-[(6,7-Dimethoxy-1,5-naphthyridin-4-yl)oxy]-3-fluorophenyl]-1-ethyl-5-(4-fluorophenyl)-2-methyl-4-oxopyridine-3-carboxamide], for which the pIC50 was greater than 7.00 in test [1], greater than 7.00 in test [2], 6.52 to 7.00 in test [3] and greater than 7.00 in test [4].

`COc1cnc2c(Oc3ccc(NC(=O)c4ccc(C)n(-c5ccc(F)cc5)c4=O)cc3F)ccnc2c1` [Compound 83, N-[3-Fluoro-4-[(7-methoxy-1,5-naphthyridin-4-yl)oxy]phenyl]-1-(4-fluorophenyl)-6-methyl-2-oxopyridine-3-carboxamide]: the negative logarithm of the IC50 (pIC50) in test [1], in test [2], in test [3] and in test [4] was greater than 7.00 throughout.

For `COc1ccc2nccc(Oc3ccc(NC(=O)c4ccc(C)n(-c5ccc(F)cc5)c4=O)cc3F)c2n1` [Compound 84, N-[3-Fluoro-4-[(6-methoxy-1,5-naphthyridin-4-yl)oxy]phenyl]-1-(4-fluorophenyl)-6-methyl-2-oxopyridine-3-carboxamide], the negative-log IC50 (pIC50) in test [1] is greater than 7.00; in test [2], greater than 7.00; in test [3] it was 6.52 to 7.00; in test [4], greater than 7.00.

Regarding `COc1ccc2nccc(Oc3ccc(NC(=O)c4ccc(C)n(-c5ccc(F)cc5C)c4=O)cc3F)c2n1` [Compound 85, N-[3-Fluoro-4-[(6-methoxy-1,5-naphthyridin-4-yl)oxy]phenyl]-1-(4-fluoro-2-methylphenyl)-6-methyl-2-oxopyridine-3-carboxamide], the negative logarithm of the IC50 (pIC50) was greater than 7.00 in test [1], greater than 7.00 in test [2], less than 6.52 in test [3] and greater than 7.00 in test [4].

Consider `COc1cc2nccc(Oc3ccc(NC(=O)c4cc(C(C)=O)c(C)n(-c5ccc(F)cc5)c4=O)cc3F)c2nc1OC` [Compound 86, 5-Acetyl-N-[4-[(6,7-dimethoxy-1,5-naphthyridin-4-yl)oxy]-3-fluorophenyl]-1-(4-fluorophenyl)-6-methyl-2-oxopyridine-3-carboxamide], for which the pIC50 was greater than 7.00 in test [1], greater than 7.00 in test [2], less than 6.52 in test [3] and greater than 7.00 in test [4].

`COc1cc2nccc(Oc3ccc(NC(=O)c4cc(C#N)c(C)n(-c5ccc(F)cc5)c4=O)cc3F)c2nc1OC` [Compound 87, 5-Cyano-N-[4-[(6,7-dimethoxy-1,5-naphthyridin-4-yl)oxy]-3-fluorophenyl]-1-(4-fluorophenyl)-6-methyl-2-oxopyridine-3-carboxamide]: the pIC50 in test [1] was greater than 7.00; in test [2] it was greater than 7.00; in test [3], less than 6.52; in test [4], greater than 7.00.

On to `COc1cc2nccc(Oc3ccc(NC(=O)c4n[nH]c(C)c(-c5ccc(F)cc5)c4=O)cc3F)c2nc1OC` [Compound 88, N-[4-[(6,7-Dimethoxy-1,5-naphthyridin-4-yl)oxy]-3-fluorophenyl]-5-(4-fluorophenyl)-6-methyl-4-oxo-1H-pyridazine-3-carboxamide], for which the pIC50 in test [1], in test [2], in test [3] and in test [4] was greater than 7.00 each time.

With `COc1ccc2nccc(Oc3ccc(NC(=O)c4n[nH]c(C)c(-c5ccc(F)cc5)c4=O)cc3F)c2n1` [Compound 89, N-[3-Fluoro-4-[(6-methoxy-1,5-naphthyridin-4-yl)oxy]phenyl]-5-(4-fluorophenyl)-6-methyl-4-oxo-1H-pyridazine-3-carboxamide], the pIC50 in test [1], in test [2], in test [3] and in test [4] was greater than 7.00 in each case.

Turning to `COc1cc2nccc(Oc3ccc(NC(=O)c4n[nH]c(C)c(-c5ccc(F)cc5C)c4=O)cc3F)c2nc1OC` [Compound 90, N-[4-[(6,7-Dimethoxy-1,5-naphthyridin-4-yl)oxy]-3-fluorophenyl]-5-(4-fluoro-2-methylphenyl)-6-methyl-4-oxo-1H-pyridazine-3-carboxamide], the pIC50 in test [1], in test [2], in test [3] and in test [4] was greater than 7.00 in each case.

For the compound `COc1cc2nccc(Oc3ccc(NC(=O)c4nn(C)c(C)c(-c5ccc(F)cc5)c4=O)cc3)c2nc1OC` [Compound 91, N-[4-[(6,7-Dimethoxy-1,5-naphthyridin-4-yl)oxy]phenyl]-5-(4-fluorophenyl)-1,6-dimethyl-4-oxopyridazine-3-carboxamide], the negative-log IC50 (pIC50) was greater than 7.00 in test [1], greater than 7.00 in test [2], 6.52 to 7.00 in test [3] and greater than 7.00 in test [4].

Turning to `COc1cc2nccc(Oc3ccc(NC(=O)c4nn(C)c(C)c(-c5ccc(F)cc5)c4=O)cc3F)c2nc1OC` [Compound 92, N-[4-[(6,7-Dimethoxy-1,5-naphthyridin-4-yl)oxy]-3-fluorophenyl]-5-(4-fluorophenyl)-1,6-dimethyl-4-oxopyridazine-3-carboxamide], the negative logarithm of the IC50 (pIC50) in test [1] was greater than 7.00; in test [2] it was greater than 7.00; in test [3] it was 6.52 to 7.00; in test [4] it was greater than 7.00.

Usually pIC50 stands for −log10 of the IC50, conventionally taken in molar units.
